Assay results: patent EP4775570A1, “CYP11A1 INHIBITOR, PREPARATION METHOD THEREFOR AND USE THEREOF” (Shenzhen Zhongge Biological Technology Co., Ltd., priority 2023, dated 2025)

Assays:
[1] = test system: VCaP castration-resistant prostate cancer subcutaneous transplant tumor model; test: In vivo pharmacodynamic study in a VCaP castration-resistant prostate cancer subcutaneous transplant tumor model; parameters: species or system SCID-Beige mice; settings: 30mg/kg BID oral + prednisone 0.6mg/kg QD; for tumor inhibitory activity (in words): compared with ODM-208
Experimental: Animals: experimental male SCID-Beige mice, 6-8-weeks old or 18-22g, provided by Beijing Vital River Laboratory Animal Technology Co., Ltd.
Experiment procedures: all experimental animals were kept within specific-pathogen-free animal barrier facility, and allowed 3 days of adaptation before the experiment began. VCaP tumor cells were in vitro cultured as monolayer in DMEM complete medium (with 10% fetal bovine serum and 1% penicillin & streptomycin) at 37°C in air containing 5% CO2. Tumor cells were routinely passaged 2-3 times a week, and cells in exponential growth phase were collected and counted for tumor cell inoculation. 10x10^6 VCaP tumor cells were resuspended in 0.1ml PBS, thoroughly mixed with 0.1ml matrigel, and then inoculated subcutaneously on the right flank of each mouse to form a tumor. The tumor-bearing mice were allowed to develop to an average tumor volume of around 200mm^3 and underwent castration surgery. The tumor volumes of all mice were measured after one week of castration surgery. Suitable tumor-bearing mice were selected and assigned randomly into the following groups: blank control group, prednisone (0.6mg/kg, QD) group, abiraterone (33.73mg/kg, QD) + prednisone (0.6mg/kg, QD) group, ODM-208 (30mg/kg, BID) + prednisone (0.6mg/kg, QD) group, and the compound of the present disclosure (30mg/kg, BID) + prednisone (0.6mg/kg, QD) group. Animals in blank control group were orally administered with vehicles (0.5%MC+0.5%Tween80 and 0.5%CMCNa), and the animals in other groups were orally administered with corresponding compound. The experiment lasted for 32 days, and during the experiment, the animals in each group were measured for tumor volume and body weight twice a week.

[2] = LC-MS detection of concentrations of tested compounds in mouse plasma, tumors and adrenal glands; assay type: in vivo; settings: compound + prednisone group vs ODM-208 + prednisone group of the VCaP model
Excerpt: • Mouse tumors were homogenized using PBS in a 1:5 ratio (tumor weight (g): PBS volume (mL), w/v); • Mouse adrenal glands were homogenized using PBS in a 1:10 ratio (adrenal gland weight (g): PBS volume (mL), w/v); • Standard sample: testosterone (LGC, C17322500), progesterone (MCE, HY-N0437), adrenal ketone (MCE, HY-B1618), and standard solution of test substance.
Concentrations of tested compounds in mouse plasma, tumors and adrenal glands: The multiple reaction monitoring (MRM) method was used to detect the concentrations in mouse plasma, tumors and adrenal glands. Mass spectrum: AB Sciex Triple Quad 6500+, liquid chromatography: Shimadzu 40A, column: XBridge BEH C18 2.5 µm 2.1*50mm, ODM208 ion pair: 419.20/176.20, tested compounds ion pair: 429.20/200.20. Acetonitrile was used as precipitant, and propranolol diclofenac were used as the internal standard for sample pretreatment in plasma, tumor, and adrenal tissue. The linear ranges of the standard in plasma tissue was 0.5-1000 ng/mL, the linear ranges of the standard in tumor tissue was 3-6000 ng/mL, and the linear ranges of the standard in adrenal tissue was 5.5-11000 ng/mL.

hERG channels = biological target: T1, hERG channels (Homo sapiens, UniProt Q12809); test: hERG testing, manual whole cell patch clamp; assay type: cell-based; settings: IC50, hERG tail current, room temperature (~25°C), 0.1-30 µM
T1 construct: host or cells: HEK293
T1 sequence (Q12809 whole entry): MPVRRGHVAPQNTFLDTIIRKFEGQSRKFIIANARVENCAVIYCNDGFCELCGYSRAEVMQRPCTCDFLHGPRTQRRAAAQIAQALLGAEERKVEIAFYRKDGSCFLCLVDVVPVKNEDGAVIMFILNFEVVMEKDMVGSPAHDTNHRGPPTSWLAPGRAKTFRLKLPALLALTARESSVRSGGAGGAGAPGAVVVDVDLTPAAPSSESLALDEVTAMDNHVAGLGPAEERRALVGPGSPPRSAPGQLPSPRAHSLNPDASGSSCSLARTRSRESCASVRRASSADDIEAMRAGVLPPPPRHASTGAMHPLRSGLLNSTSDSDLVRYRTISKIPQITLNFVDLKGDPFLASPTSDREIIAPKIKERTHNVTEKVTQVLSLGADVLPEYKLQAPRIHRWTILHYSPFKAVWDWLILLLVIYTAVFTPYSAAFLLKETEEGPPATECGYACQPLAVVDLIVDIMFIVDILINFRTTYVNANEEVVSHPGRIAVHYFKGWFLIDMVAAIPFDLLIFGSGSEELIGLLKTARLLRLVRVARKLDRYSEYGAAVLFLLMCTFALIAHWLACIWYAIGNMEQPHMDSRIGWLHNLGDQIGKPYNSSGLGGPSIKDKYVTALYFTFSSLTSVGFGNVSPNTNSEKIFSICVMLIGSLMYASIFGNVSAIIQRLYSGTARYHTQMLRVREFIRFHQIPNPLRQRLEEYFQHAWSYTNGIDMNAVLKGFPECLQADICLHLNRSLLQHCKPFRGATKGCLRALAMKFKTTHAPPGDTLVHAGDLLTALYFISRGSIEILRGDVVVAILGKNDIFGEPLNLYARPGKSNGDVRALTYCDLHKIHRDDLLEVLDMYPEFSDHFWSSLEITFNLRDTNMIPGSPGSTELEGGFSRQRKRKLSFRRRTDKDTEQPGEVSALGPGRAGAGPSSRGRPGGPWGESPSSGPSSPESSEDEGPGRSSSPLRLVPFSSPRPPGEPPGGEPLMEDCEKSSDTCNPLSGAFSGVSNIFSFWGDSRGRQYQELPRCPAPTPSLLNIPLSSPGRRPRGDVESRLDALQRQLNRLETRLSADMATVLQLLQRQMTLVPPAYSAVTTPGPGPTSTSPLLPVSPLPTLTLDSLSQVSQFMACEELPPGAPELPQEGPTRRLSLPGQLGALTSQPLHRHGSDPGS
Experimental: The cells used in this experiment were HEK293 cell lines transfected with hERG cDNA and stably expressing hERG channels (#60187, provided by BPS Bioscience Inc., P3-P23 generations were used in the experiment). The cells were cultured in a culture medium containing the following components: MEM medium, 10% (v/v) inactivated fetal bovine serum, 1 mM sodium pyruvate, 500µg/ml geneticin, 0.1mM non-essential amino acid, 100U/ml penicillin-streptomycin. HEK293 hERG cells were grown in petri dishes containing the aforementioned culture medium and cultured in an incubator at 37°C and 5% CO2, passaged approximately three times a week and maintained at a cell fusion rate between 40% and 80%. […]
The electrophysiological experiment was carried out using a manual patch clamp system (HEKA EPC-10 signal amplifier and digital conversion system, HEKA Electronics, Germany) to record the whole cell currents. […] Only when the hERG potassium current recorded in the previous step achieved stable state under continuous extracellular fluid perfusion within the recording chamber, could the compound to be tested be continuously perfused until the inhibitory effect of the compound on the hERG current reaches a stable state. […]

| weight loss (in words) [1] | animal weight loss ([1]; 32 days) | drug concentration in adrenal glands relative to ODM-208 [2] | drug concentration in plasma relative to ODM-208 [2] | drug concentration in tumors relative to ODM-208 [2] | Structure (SMILES) | tumor inhibition rate TGI ([1]; castrated tumor-bearing mice, 32 days) | tumor inhibitory activity (in words) [1] | IC50 (hERG channels) |
| --- | --- | --- | --- | --- | --- | --- | --- | --- |
| without significant weight loss | -2% | 80 fold | 3 fold | 10 fold | COc1cc(CN2Cc3ccccc3C2)ccc1CCC1CCN(S(C)(=O)=O)CC1 [compound 53] | 112% | significantly better than ODM-208 |  |
| without significant weight loss |  | 3.3 fold | 1.6 fold | 3.6 fold | Cn1c(CN2Cc3ccccc3C2)c(F)cc(CCC2CCN(S(C)(=O)=O)CC2)c1=O [compound 72] |  | significantly better than ODM-208 | > 30 µM |
|  |  |  |  |  | Cn1c(CN2Cc3ccccc3C2)c(F)cc(C=CC2CCN(C(=O)CC#N)CC2)c1=O [compound 112] |  |  | > 30 µM |
